Assay results as given in US12121530B2, “Composition and methods for treating articulating joint disorders with nucleoside reverse transcriptase inhibitors” (RHODE ISLAND HOSPITAL, priority 2018, dated 2024).
“Also recorded” adds a separate entry of the source. Each block holds one compound with its values, some of them ahead of it.

Legend:
[1] = system: mouse primary chondrocytes; assay: RT-qPCR gene expression in mouse primary chondrocytes treated with 3TC or FTC at various dosages; assay type: cell-based; details: mouse chondrocytes (FIG. 3H), western blot Line-1-ORF1
[2] = system: C28 transiently over-express miR-365; assay: C28 transiently over-expressing miR-365 treated with 3TC, RT-qPCR; assay type: cell-based, human
Protocol: Cells were seeded onto desired size plates to reach 70-90% confluence and transfected with miR-365 mimic or miRNA mimic negative control or miR-365 inhibitor or inhibitor negative control (Dharmacon®, Lafayette, Colo., USA). Lipofectamine 3000 (Invitrogen®, Waltham, Mass., USA) was used as transfection reagents. Medium is changed 24 hrs after transfection. 48 hrs post transfection, cells were lysated in either QIAzol for RNA purification and real-time PCR analysis or ice-cold lysis buffer containing protease inhibitor and phosphatase inhibitor for western blot analysis. MiR-365 mimic, miRNA mimic negative control, miR-365 inhibitor and inhibitor negative control were typically used at a final concentration of 25 nM unless otherwise stated.
(§1) Both miRNA and mRNA were extracted using miRNeasy Mini Kit (Qiagen®, Germantown, Md., USA) and reversely transcribed using miScriptIIRT Kit (Qiagen®, Germantown, Md., USA) according to manufacturer's instruction. qPCR was performed using SYBR Green PCR master mix (Qiagen®, Germantown, Md., USA) on a Bio-Rad CFX96 real-time PCR detection system (Bio-Rad®, Hercules, Calif., USA). Amplification conditions are as follows: 95° C. for 10 min, 40 cycles of 95° C. for 10″, 55° C. for 30″, and 72° C. for 30″. 18S ribosomal or GAPDH RNA was used as an internal control gene to normalize the mRNAs level. The ubiquitously expressed snRNA U6 was used as an endogenous control for miRNAs level. Primers were synthesized by Integrated DNA Technologies (http://www.idtdna.com). The primers for miR-365 were purchased from Qiagen. Fold changes of mRNA and miRNAs were calculated by the 2^^(ΔΔCt) method and normalized to 18S/GAPDH or U6 snRNA, respectively.

129S6/SvEv mice = assay: DMM induced OA (PTOA) in 129S6/SvEv mice, oral 3TC or FTC; assay type: in vivo, mouse; details: for Adamts5 mRNA in cartilage / Col10 (Col 10a1) mRNA in cartilage / Line-1 level in cartilage / Mmp13 mRNA in cartilage / miR-365 induction by DMM: DMM mice, qPCR, versus Saline; for body weights, drug versus control treatment groups: DMM or Sham mice, drug in water from 8 weeks old for 4 weeks; for DMM induced proteoglycan loss in surgical knees: histology, drug in water for 4 weeks; for DMM induced OA / cartilage joint degeneration (Safranin O, OARSI quantification): oral administration for 1 month from 2-month-old
Source text: 12956/SvEv strain male mice were purchased from Taconic (https://www.taconic.com/mouse-model/129s6) at their age of 7-week-old. At least 3-day (72-hrs) acclimation period must be given to mice before any further procedures occurred to them. All 12956/SvEv strain mice throughout the studies were male.
129S6/SvEv male mice were chosen for experimental subjects at their age of 8-week-old. To create mouse injury/trauma induced OA model, medial meniscus ligament was transected using a previously described method (Lohmander, L. S., et al. Am J Sports Med 35, 1756-1769 (2007)). Briefly, 8-week-old male mice were anesthetized using either intraperitoneal (IP) injection of Ketamine/Dexmedetomidine or isoflurane to carry out medial parapatellar arthrotomy. Transection was made with a stab knife (Sharpoint™, Cat. 72-1551). At Weeks 12, mice were euthanized and dissected for histological examination as well as cartilage RNA extraction. 12 mice were used for each group/time point.
Paraffin sections were de-paraffinized in 2 changes of xylene, 10 mins each, followed by re-hydration in 2 changes of 100% alcohol, 5 mins each; 2 changes of 95% alcohol, 5 mins each; 70% alcohol for 5 mins. Sections were then rinsed in running tap water for 2 mins before stained with 0.4% fast green solution (Sigma, Cat. F-7258, St. Louis, Mo. 63103 USA) for 2 mins however the latter timing must be empirically controlled to assure desired coloration. Stained sections were then quickly rinsed with 1% acetic acid solution (Sigma, Cat. 695092-500ML-GL, St. Louis, Mo. 63103 USA) for no more than 10-15 sec. 0.1% Safranin O Solution was used for staining proteoglycan however the actual timing must be carefully determined based on actual coloring condition, for maximally 10 mins. After Safranin O staining, sections were submerged in 2 changes of 95% alcohol, 2 mins each, 2 changes of 100% alcohol, 2 mins each for de-hydration. Lastly, sections were cleared in 2 changes of xylene, 2 mins each, and mounted using resinous mounting medium (ACRYMOUNT™, Cat. SL80-4, McKinney, Tex. 75069 USA).
To histologically evaluate OA severity, we quantified Safranin O stained knee sections according to OARSI semi-quantitative system as previously described^3.
as §1

miR-365 Tg mice = assay: primary OA model: miR-365 Tg mice given oral 3TC for 4 months; assay type: in vivo, mouse; details: for tibial subchondral BV/TV / connectivity density of subchondral bone / trabecular number of subchondral bone / trabecular separation of subchondral bone: microCT
[3] = human chondrocytes over-expressing miR-365, various concentrations
[4] = miR-365 Tg mice, 3TC for 4 months, RT-qPCR
[5] = miR-365 Tg mice, 3TC for four months

tibial subchondral BV/TV (miR-365 Tg mice; Cre control mice, 3TC 4 months): did not alter
connectivity density of subchondral bone (miR-365 Tg mice; Cre mice, 3TC 4 months): increased
trabecular number of subchondral bone (miR-365 Tg mice; Cre mice, 3TC 4 months): increased
trabecular separation of subchondral bone (miR-365 Tg mice; Cre mice, 3TC 4 months): decreased
subchondral BMD (miR-365 Tg mice; miR-365 Tg mice, 3TC 4 months): without decreasing
connectivity density of subchondral bone (miR-365 Tg mice; miR-365 Tg mice, 3TC 4 months): no effect
tibial subchondral BV/TV (miR-365 Tg mice; miR-365 Tg mice, 3TC 4 months): did not alter
trabecular number of subchondral bone (miR-365 Tg mice; miR-365 Tg mice, 3TC 4 months): no effect
trabecular separation of subchondral bone (miR-365 Tg mice; miR-365 Tg mice, 3TC 4 months): no effect
SMILES: Nc1ccn([C@@H]2CS[C@H](CO)O2)c(=O)n1 [3TC, lamivudine]
L1 expression at protein level [1]: inhibited
ACAN suppression by miR-365 [2, 3]: rectifies
miR-365 induced up-regulation of ADAMTS5 [2, 3]: completely abolishes
miR-365 induced up-regulation of COL10 [2, 3]: completely abolishes
miR-365 induced up-regulation of IHH [2, 3]: completely abolishes
miR-365 induced up-regulation of LINE-1 [2, 3]: completely abolishes
effect of miR-365 on L1, ADAMTS5, IHH, COL10A1 and ACAN levels ([2]; miR-365 transfected human chondrocytes (FIG. 3O-3T)): abolished and in some cases even reversed
Adamts5 mRNA in cartilage (129S6/SvEv mice): significantly repressed
Col10 (Col 10a1) mRNA in cartilage (129S6/SvEv mice): significantly repressed
Line-1 level in cartilage (129S6/SvEv mice): inhibition
Mmp13 mRNA in cartilage (129S6/SvEv mice): significantly repressed
miR-365 induction by DMM (129S6/SvEv mice): significantly prohibit
body weights, drug versus control treatment groups (129S6/SvEv mice): No appreciable difference
DMM induced proteoglycan loss in surgical knees (129S6/SvEv mice): effectively prevent
DMM induced OA / cartilage joint degeneration (Safranin O, OARSI quantification) (129S6/SvEv mice): significantly prevented; also recorded: significantly inhibited
early onset of OA / OA pathogenesis (Safranin O staining, OARSI quantification) (miR-365 Tg mice; 6-month-old miR-365 Tg mice, 3TC for 4 months): abolished; also recorded: prevented early onset of OA
Acan levels in articular cartilage (miR-365 Tg mice; [4]): unchanged
Adamts5 expression in articular cartilage (miR-365 Tg mice; [4]): significantly inhibited; also recorded: significantly suppressed
Alu expression in articular cartilage (miR-365 Tg mice; [4]): significantly suppressed
Col10 (Col10a1) expression in articular cartilage (miR-365 Tg mice; [4]): significantly inhibited; also recorded: significantly suppressed
Inf-α expression in articular cartilage (miR-365 Tg mice; [4]): significantly inhibited
Line-1 (Line-1-ORF2) expression in articular cartilage (miR-365 Tg mice; [4]): significantly inhibited; also recorded: abolished; also recorded: significantly suppressed
Sqstm1 expression in articular cartilage (miR-365 Tg mice; [4]): inhibition was abolished; also recorded: significantly up-regulated
Zc3hav1 (Zac3hav1) expression in articular cartilage (miR-365 Tg mice; [4]): inhibition was abolished; also recorded: significantly up-regulated
Dicer mRNA level in cartilage (miR-365 Tg mice; [5]): inhibition was abolished
Prkdc mRNA level in cartilage (miR-365 Tg mice; [5]): inhibition was abolished
miR-365 expression in articular cartilage (miR-365 Tg mice; miR-365 Tg mice, oral 3TC for 4 months, RT-qPCR): abolished; also recorded: significantly suppressed
Ihh expression in vivo (miR-365 Tg mice; mice treated with 3TC from 2-month old till 6-month old): suppresses only Line-1 but not Ihh

SMILES: Nc1nc(=O)n([C@@H]2CS[C@H](CO)O2)cc1F [FTC, 2′,3′-dideoxy-5-fluoro-3′-thiacytidine]
Adamts5 mRNA in cartilage (129S6/SvEv mice): significantly repressed
Col10 (Col 10a1) mRNA in cartilage (129S6/SvEv mice): significantly repressed
Line-1 level in cartilage (129S6/SvEv mice): inhibition
Mmp13 mRNA in cartilage (129S6/SvEv mice): significantly repressed
miR-365 induction by DMM (129S6/SvEv mice): significantly prohibit
body weights, drug versus control treatment groups (129S6/SvEv mice): No appreciable difference
DMM induced proteoglycan loss in surgical knees (129S6/SvEv mice): effectively prevent
DMM induced OA / cartilage joint degeneration (Safranin O, OARSI quantification) (129S6/SvEv mice): significantly prevented; also recorded: significantly inhibited
